Measurements taken from patent publication US10005744B2, “Compounds for the treatment or prevention of breast cancer” (JIANGSU ATOM BIOSCIENCE AND PHARMACEUTICAL CO., LTD., priority 2015, dated 2018).
pIC50: −log10 of the molar value. Where two headings read alike, the source gives them in different places.

Assays:
Type in all cases: cell-based
[1] = system: human colon cancer cells HCT116; assay: Growth inhibition of human colon cancer cells HCT116
Experimental: (§1) 1. Breast cancer cells MCF-7 (Luminal type cells) and MDA-MB-468 (basal-like cells, which are of the triple-negative type without epithelial-mesenchymal transition) were purchased from Cell Resource Center of Shanghai Institutes for Biological Sciences of the Chinese Academy of Sciences, and cultured with DMEM culture medium(containing 10% of fetal bovine serum, 10 U/mL of penicillin and 0.1 mg/mL of streptomycin) in a 5% CO2 incubator at 37[…] until the cell density was about 90%.
(§2) 2. The cells were inoculated to a 96-well plate at a cell population of 3×10^3/well and then cultured in the 5% CO2 incubator for 24 h at 37[…].
(§3) 3. Tested compounds of different concentration gradients were prepared by using the DMEM culture medium, and added into wells at 100 μL/well as tested compounds wells; and, the DMEM culture liquid was added into wells at 100 μL/well as negative control wells. At 37[…] and in the 5% CO2 incubator, the MCF-7 cells were cultured for 120 h, and MDA-MB-468 cells were cultured for 72 h.
(§4) 4. Resazurin (15 mg/50 mL), Methylene Blue (25 mg/10 mL), Potassium ferricyanide (0.329 g/100 mL) and Potassium ferrocyanide (0.422 g/100 mL) were dissolved into PBS (0.1 M, pH=7.4) to obtain Alamar Blue solution for standby.
(§5) 5. The cells were washed with PBS (0.1 M, pH=7.4) for two times, and the Alamar Blue solution was added into wells at 100 μL/well; and 100 μL of Alamar Blue solution was added into wells without cells to serve as blank control cells. The 96-well plate was placed into the 5% CO2 incubator at 37[…] and cultured for 3 h.
(§6) 6. The fluorescence value of the cells was detected at 530/590 nm by ELIASA Victor X4 (Perkin Elmer). The fluorescence value at each concentration was repetitively measured for 4 times to obtain an average value and a standard deviation. The cell viability was calculated by the following formula[User2]: […]
(§7) 7. The half inhibitory concentration (IC50) of the tested compounds againstt he cell lines was obtained according to the cell viability by Prism Graph software.
(§8) Growth inhibition tests of the tested compounds 7, 17, 18, 34, 35 and 41 on the human lung cancer cells H1299, human colon cancer cells HT29, human liver cancer cells SK-HEP-1, human colon cancer cells HCT116, human normal liver cells L-02 and WRL-68 were conducted, and the method refers to Embodiment 19 “Inhibition effects of the compounds on the growth of breast cancer cells MCF-7 and MDA-MB-468”.

[2] = system: human liver cancer cells SK-HEP-1; assay: Growth inhibition of human liver cancer cells SK-HEP-1
Experimental: as §1, §2, §3, §4, §5, §6, §7, §8

MDA-MB-468 = assay: Growth inhibition of breast cancer cell line MDA-MB-468 (Alamar Blue); details: Homo sapiens, read-out: Half inhibitory concentration (IC50) against MDA-MB-468
Experimental: as §1, §2, §3, §4, §5, §6, §7

MCF-7 = assay: Growth inhibition of breast cancer cell line MCF-7 (Alamar Blue); details: Homo sapiens; for pIC50: read-out: Half inhibitory concentration (IC50) against MCF-7
Experimental: as §1, §2, §3, §4, §5, §6, §7

[3] = system: human lung cancer cells H1299; assay: Growth inhibition of human lung cancer cells H1299
Experimental: as §1, §2, §3, §4, §5, §6, §7, §8

[4] = system: human normal liver cells L-02; assay: Growth inhibition of human normal liver cells L-02
Experimental: as §1, §2, §3, §4, §5, §6, §7, §8

[5] = system: human normal liver cells WRL-68; assay: Growth inhibition of human normal liver cells WRL-68
Experimental: as §1, §2, §3, §4, §5, §6, §7, §8

[6] = system: human colon cancer cells HT29; assay: Growth inhibition of human colon cancer cells HT29
Experimental: as §1, §2, §3, §4, §5, §6, §7, §8

[7] = HCT-116, read-out: half inhibitory concentration (IC50)
[8] = SK-HEP1, read-out: half inhibitory concentration (IC50)
[9] = NCI-H1299, read-out: half inhibitory concentration (IC50)
[10] = L02, read-out: half inhibitory concentration (IC50)
[11] = WRL68, read-out: half inhibitory concentration (IC50)
[12] = HT-29, read-out: half inhibitory concentration (IC50)

SMILES	pIC50 [1, 7]	pIC50 [2, 8]	pIC50 (MDA-MB-468; MDA-MB-468, 72 h)	pIC50 (MCF-7; MCF7, 120 h)	pIC50 [3, 9]	pIC50 [4, 10]	pIC50 [5, 11]	pIC50 [6, 12]	pIC50 ([1]; HCT-116, HCT116 cells, range stated over the six cell lines, read-out: half inhibitory concentration (IC50))	pIC50 ([2]; SK-HEP1, SK-HEP-1 cells, range stated over the six cell lines, read-out: half inhibitory concentration (IC50))	pIC50 (MDA-MB-468; MDA-MB-468 cells cultured 72 h with compound, Alamar Blue)	pIC50 (MCF-7; MCF7, MCF-7 cells cultured 120 h with compound, Alamar Blue)	inhibition at 0.5 µM (MCF-7; MCF7, highest concentration, 500 nM, read-out: inhibition rate to MCF-7 cell line) [%]	pIC50 ([3]; NCI-H1299, H1299 cells, range stated over the six cell lines, read-out: half inhibitory concentration (IC50))	pIC50 ([4]; L02, L-02 cells, range stated over the six cell lines, read-out: half inhibitory concentration (IC50))	pIC50 ([5]; WRL68, WRL-68 cells, range stated over the six cell lines, read-out: half inhibitory concentration (IC50))	pIC50 ([6]; HT-29, HT29 cells, range stated over the six cell lines, read-out: half inhibitory concentration (IC50))
Nc1c(F)cc(-c2nc3cc(F)ccc3[se]2)cc1F [Compound 41, 2,6-difluoro-4-(5-fluorobenzoselenazole-2-yl)aniline]	< 5.00	< 5.00	7.70	7.25	< 5.00	< 5.00	< 5.00	< 5.00	–	–	–	–	–	–	–	–	–
Nc1ccc(-c2nc3cc(F)ccc3[se]2)cc1Br [Compound 14, 2-bromo-4-(5-fluorobenzoselenazole-2-yl)aniline]	–	–	6.86	6.73	–	–	–	–	–	–	–	–	–	–	–	–	–
Cc1cc(-c2nc3cc(F)ccc3[se]2)cc(Br)c1N [Compound 18, 2-bromo-4-(5-fluorobenzoselenazole-2-yl)-6-methylaniline]	< 5.00	< 5.00	7.15	7.04	< 5.00	< 5.00	< 5.00	< 5.00	–	–	–	–	–	–	–	–	–
CC(=O)O[C@H]1C(=O)[C@@]2(C)[C@H]([C@H](OC(=O)c3ccccc3)[C@]3(O)C[C@H](OC(=O)[C@H](O)[C@@H](NC(=O)c4ccccc4)c4ccccc4)C(C)=C1C3(C)C)[C@]1(OC(C)=O)CO[C@@H]1C[C@@H]2O [Paclitaxel, paclitaxel, reference compound]	–	–	–	–	–	–	–	–	7.82 to 8.80	7.82 to 8.80	8.35	8.34	70	7.82 to 8.80	7.82 to 8.80	7.82 to 8.80	7.82 to 8.80
Nc1ccc(-c2nc3cc(F)ccc3[se]2)cc1F [Compound 34, 2-fluoro-4-(5-fluorobenzoselenazole-2-yl)aniline]	< 5.00	< 5.00	7.54	7.28	< 5.00	< 5.00	< 5.00	< 5.00	–	–	–	–	–	–	–	–	–
Nc1c(F)cc(-c2nc3cc(F)ccc3[se]2)cc1Br [Compound 35, 2-bromo-6-fluoro-4-(5-fluorobenzoselenazole-2-yl)aniline]	< 5.00	< 5.00	7.40	7.38	< 5.00	< 5.00	< 5.00	< 5.00	–	–	–	–	–	–	–	–	–
Nc1ccc(-c2nc3ccccc3[se]2)cc1Br [Compound 7, 4-(benzoselenazole-2-yl)-2-bromoaniline]	< 5.00	< 5.00	7.13	7.25	< 5.00	< 5.00	< 5.00	< 5.00	–	–	–	–	–	–	–	–	–
Cc1ccc(-c2nc3cc(F)ccc3[se]2)cc1N [Compound 37, 5-(5-fluorobenzoselenazole-2-yl)-2-methylaniline]	–	–	6.94	6.35	–	–	–	–	–	–	–	–	–	–	–	–	–
Cc1cc(-c2nc3cc(F)ccc3[se]2)ccc1N [Compound 17, 4-(5-fluorobenzoselenazole-2-yl)-2-methylaniline]	< 5.00	< 5.00	7.23	7.14	< 5.00	< 5.00	< 5.00	< 5.00	–	–	–	–	–	–	–	–	–
Cc1ccc2[se]c(-c3ccc(N)c(C)c3)nc2c1 [Compound 26, 2-methyl-4-(5-methylbenzoselenazole-2-yl)aniline]	–	–	–	6.87	–	–	–	–	–	–	–	–	–	–	–	–	–
